Results from patent publication US6462023B1, “Cytostatic agents” (British Biotech Pharmaceuticals, Ltd., priority 1988, dated 2002).

System: histiocytic lymphoma (U937)
Assay: cell proliferation assay ([methyl-3H] thymidine incorporation), U937
Assay type: cell-based, human
Conditions: 6 μM; comparison compound
Description: (§1) Two human cell lines namely a histiocytic lymphoma (U937) and a melanoma (RPMI-7951) were seeded into 30 mm^2 tissue culture wells, in the appropriate culture medium supplemented with 10% fetal calf serum at a density of 250 cells/mm^2. Six hours later the test compounds were added in the same culture medium to the cells to give a final concentration of 6 μM. Control wells contained cells supplemented with the same culture medium containing the equivalent amount of drug vehicle, which in this case was DMSO at a final concentration of 0.08%. After 72 hours in culture the cells were pulsed for 3 hours with [methyl-^3[H] Thymidine] (2 μCi/ml) and then harvested onto filter mats and DNA associated radioactivity counted. Results are expressed as percentage of control ^3[H] Thymidine incorporation (n=6±1 stdv).
Further examples were tested in the U937 assay described above at 6 μM and the results, expressed as percentage of control ^3[H] Thymidine incorporation (n=6±1 stdv), are set out in the following Table 2.
as §1, with “A” for “Two”, “line,” for “lines”, “(U937), was” for “(U937) and a melanoma (RPMI-7951) were”, “30MM^2” for “30 mm^2”, “cellS/MM^2.” for “cells/mm^2.”, “were” for “are”

O=c1[nH]cc(F)c(=O)[nH]1 [5-fluorouracil, reference compound] was tested, and the “activity in the U937 assay relative to that observed with the vehicle alone” value was 50%.

Same assay, conditions: Homo sapiens, U-937; Table 1; final concentration 6 μM; 72 hours in culture, 3 hours pulse; n=6; read-out: U937: percentage of control 3[H] Thymidine incorporation

Work on COC(=O)[C@@H](Cc1ccccc1)NC(=O)[C@@H](CC(C)C)[C@@H](C)C(=O)NO [Example 4, 3S-(2-Phenyl-1R-methylcarboxy-ethylcarbamoyl)-2R, 5-dimethylhexanohydroxamic acid, reference compound] yielded an activity at 6 µM of 93%.

Same assay, conditions: Homo sapiens, U-937; Table 2; 6 μM; 72 hours in culture; n=6; read-out: U937: percentage of control 3[H] Thymidine incorporation

In order of falling activity at 6 µM:
1. C=CC[C@H](C(=O)NO)[C@@H](CC(C)C)C(=O)N(C)[C@@H](Cc1ccccc1)C(=O)OC(C)C [Example 25, 2S-{(3S-Hydroxycarbamoyl-2R-isobutyl-hex-5-enoyl)-methyl-amino)-3-phenylpropionic acid isopropyl ester]  34%
2. COCCOC(=O)[C@@H](Cc1ccccc1)NC(=O)[C@H](CC(C)C)[C@H](C)C(=O)NO [Example 14, 2S-[2R-(1S-Hydroxycarbamoyl-ethyl)-4-methyl-pentanoylamino]-3-phenyl-propionic acid 2-methoxy-ethyl ester]  33%
3. C=CC[C@H](C(=O)NO)[C@@H](CC(C)C)C(=O)N[C@H](C(=O)OC1CCCC1)C(C)CC (stereo partly drawn) [Example 12, 2S-(3S-Hydroxycarbamoyl-2R-isobutyl-hex-5-enoylamino)-3S-methyl-pentanoic acid cyclopentyl ester]  10%
4. C=CC[C@H](C(=O)NO)[C@@H](CC(C)C)C(=O)N[C@@H](Cc1ccccc1)C(=O)O[C@@H](C)CCC [Example 31, 2S-(3S-Hydroxycarbamoyl-2R-isobutyl-hex-5-enoylamino)-3-phenylpropionic acid 1S-methyl-butyl ester]  7%
5. CC(C)C[C@@H](C(=O)N[C@@H](Cc1ccccc1)C(=O)OC(C)C)[C@H](O)C(=O)NO [Example 8, 2S-[2R-(S-Hydroxy-hydroxycarbamoyl-methyl)-4-methyl-pentanoylamine]-3-phenyl-propionic acid isopropyl ester]  1%
6. CCC[C@H](C(=O)NO)[C@@H](CC(C)C)C(=O)N[C@@H](Cc1ccccc1)C(=O)OC(C)C [Example 21, 2S-(3S-Hydroxycarbamoyl-2R-isobutyl-hexanoylamino)-3-phenylpropionic acid isopropyl ester]  1%
7. C=CC[C@H](C(=O)NO)[C@@H](CC(C)C)C(=O)N[C@@H](Cc1ccccc1)C(=O)OC1CCCC1 [Example 20, 2S-(3S-Hydroxycarbamoyl-2R-isobutyl-hex-5-enoylamino)-3-phenylpropionic acid cyclopentyl ester]  0%
8. C=CC[C@H](C(=O)NO)[C@@H](CC(C)C)C(=O)N[C@@H](Cc1ccccc1)C(=O)OC1CCCCC1 [Example 32, 2S-(3S-Hydroxycarbamoyl-2R-isobutyl-hex-5-enoylamino)-3-phenylpropionic acid cyclohexyl ester]  0%
9. C=CC[C@H](C(=O)NO)[C@@H](CC(C)C)C(=O)N[C@H](C(=O)OC1CCCC1)c1ccccc1 [Example 41, 2S-(3S-Hydroxycarbamoyl-2R-isobutyl-hex-5-enoylamino)-2-phenylethanoic acid cylcopentyl ester]  0%
10. CC(C)C[C@H](CC(=O)NO)C(=O)N[C@@H](Cc1ccccc1)C(=O)OC(C)C [Example 7, 2S-(2R-Hydroxycarbamoylmethyl-4-methyl-pentanoylamino)-3-phenyl-propionic acid isopropyl ester]  0%
11. C=CC[C@H](C(=O)NO)[C@@H](CC(C)C)C(=O)N[C@@H](CC(C)C)C(=O)OC1CCCC1 [Example 27, 2S-(3S-Hydroxycarbamoyl-2R-isobutyl-hex-5-enoylamino)-4-methyl-pentanoic acid cyclopentyl ester]  0%
